Molecular target: HIS-TGFβR1 T204D (Homo sapiens (Human), UniProt P36897, T204D)
Assay: HTRF probe-displacement assay, HIS-TGFβR1 T204D
Format: binding
Conditions: 1 hour at room temperature

HIS-TGFβR1 T204D, sequence (P36897 34-503 T204D): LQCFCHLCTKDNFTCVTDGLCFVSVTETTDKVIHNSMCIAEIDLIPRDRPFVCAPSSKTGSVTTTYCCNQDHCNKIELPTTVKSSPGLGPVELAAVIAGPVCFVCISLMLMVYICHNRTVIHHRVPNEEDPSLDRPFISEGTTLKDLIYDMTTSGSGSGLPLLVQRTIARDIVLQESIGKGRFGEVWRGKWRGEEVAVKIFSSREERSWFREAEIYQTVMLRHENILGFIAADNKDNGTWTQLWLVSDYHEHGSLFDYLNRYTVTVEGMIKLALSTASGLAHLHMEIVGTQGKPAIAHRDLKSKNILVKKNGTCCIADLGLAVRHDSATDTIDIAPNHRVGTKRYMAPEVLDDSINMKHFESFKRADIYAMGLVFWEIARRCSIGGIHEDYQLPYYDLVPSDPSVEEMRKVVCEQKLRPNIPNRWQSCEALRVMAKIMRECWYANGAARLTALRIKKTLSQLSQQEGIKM

IC50 [nM]	SMILES
0.92	Cc1csc(-c2nc(Nc3ccncc3Cl)c3cccn3n2)n1 [Example 87, 3-chloro-N-[2-(4-methyl-1,3-thiazol-2-yl)pyrrolo[2,1-f][1,2,4]triazin-4-yl]pyridin-4-amine]
0.84	CC(=O)Nc1cc(Nc2nc(-c3ccc(F)c(C)n3)nn3cccc23)ccn1 [Example 19, N-(4-{[2-(5-fluoro-6-methylpyridin-2-yl)pyrrolo[2,1-f][1,2,4]triazin-4-yl]amino}pyridin-2-yl)acetamide]
1200	O=C(c1cnccc1Nc1nc(-c2cccc(C(F)F)n2)nn2cccc12)N1CCC(O)(c2ccccc2)CC1 [Example 185, 1-[4-({2-[6-(difluoromethyl)pyridin-2-yl]pyrrolo[2,1-f][1,2,4]triazin-4-yl}amino)pyridine-3-carbonyl]-4-phenylpiperidin-4-ol]
4	O[C@@H](CNCc1ccn2nc(-c3ccccn3)nc(Nc3ccncc3F)c12)c1ccccc1 [Example 310, (1R)-2-[({4-[(3-fluoropyridin-4-yl)amino]-2-(pyridin-2-yl)pyrrolo[2,1-f][1,2,4]triazin-5-yl}methyl)amino]-1-phenylethan-1-ol]
6.3	OCC1(NCc2ccn3nc(-c4ccccn4)nc(Nc4ccncc4F)c23)CCCC1 [Example 244, {1-[({4-[(3-fluoropyridin-4-yl)amino]-2-(pyridin-2-yl)pyrrolo[2,1-f][1,2,4]triazin-5-yl}methyl)amino]cyclopentyl}methanol]
33	Cc1cccc(-c2nc(Nc3ccncc3C(=O)NCC3(O)CCN(C)CC3)c3cccn3n2)n1 [Example 154, N-[(4-hydroxy-1-methylpiperidin-4-yl)methyl]-4-{[2-(6-methylpyridin-2-yl)pyrrolo[2,1-f][1,2,4]triazin-4-yl]amino}pyridine-3-carboxamide]
12	CN1CCN(CCCNCc2ccn3nc(-c4ccccn4)nc(Nc4ccncc4F)c23)CC1 [Example 283, 3-fluoro-N-[5-({[3-(4-methylpiperazin-1-yl)propyl]amino}methyl)-2-(pyridin-2-yl)pyrrolo[2,1-f][1,2,4]triazin-4-yl]pyridin-4-amine]
120	O=C(NCCN1CCCCC1)c1cnccc1Nc1nc(-c2cccc(C(F)(F)F)n2)nn2cccc12 [Example 171, N-[2-(piperidin-1-yl)ethyl]-4-({2-[6-(trifluoromethyl)pyridin-2-yl]pyrrolo[2,1-f][1,2,4]triazin-4-yl}amino)pyridine-3-carboxamide]
0.86	CC(=O)Nc1cc(Nc2nc(-c3cccc(F)n3)nn3cccc23)ccn1 [Example 291, N-(4-{[2-(6-fluoropyridin-2-yl)pyrrolo[2,1-f][1,2,4]triazin-4-yl]amino}pyridin-2-yl)acetamide]
1.6	CC(C)(O)CNCc1ccn2nc(-c3ccccn3)nc(Nc3ccncc3F)c12 [Example 125, 1-[({4-[(3-fluoropyridin-4-yl)amino]-2-(pyridin-2-yl)pyrrolo[2,1-f][1,2,4]triazin-5-yl}methyl)amino]-2-methylpropan-2-ol]
5.3	Cc1cccc(-c2nc(Nc3ccncc3C(=O)NCCN3CCCC3)c3cccn3n2)n1 [Example 152, 4-{[2-(6-methylpyridin-2-yl)pyrrolo[2,1-f][1,2,4]triazin-4-yl]amino}-N-[2-(pyrrolidin-1-yl)ethyl]pyridine-3-carboxamide]
1.2	O=C(CCN1CCC(O)CC1)Nc1cc(Nc2nc(-c3cccc(C(F)(F)F)n3)nn3cccc23)ccn1 [Example 340, 3-(4-hydroxypiperidin-1-yl)-N-[4-({2-[6-(trifluoromethyl)pyridin-2-yl]pyrrolo[2,1-f][1,2,4]triazin-4-yl}amino)pyridin-2-yl]propanamide]
6600	COc1cccc(-c2nc(Nc3ccnc(NCC(C)(C)O)c3)c3c(C)ccn3n2)n1 [Example 138, 1-[(4-{[2-(6-methoxypyridin-2-yl)-5-methylpyrrolo[2,1-f][1,2,4]triazin-4-yl]amino}pyridin-2-yl)amino]-2-methylpropan-2-ol]
0.85	CC(=O)Nc1cc(Nc2nc(-c3ccccn3)nn3ccc(CNCC(C)(C)O)c23)ccn1 [Example 117, N-{4-[(5-{[(2-hydroxy-2-methylpropyl)amino]methyl}-2-(pyridin-2-yl)pyrrolo[2,1-f][1,2,4]triazin-4-yl)amino]pyridin-2-yl}acetamide]
0.85	O[C@@H]1CCN(Cc2ccn3nc(-c4ccccn4)nc(Nc4ccncc4F)c23)C1 [Example 233, (3R)-1-({4-[(3-fluoropyridin-4-yl)amino]-2-(pyridin-2-yl)pyrrolo[2,1-f][1,2,4]triazin-5-yl}methyl)pyrrolidin-3-ol]
22	Cc1nc(-c2nc(Nc3ccncc3C(=O)NCCN3CCS(=O)(=O)CC3)c3cccn3n2)ccc1F [Example 35, N-[2-(1,1-dioxo-1,4-thiomorpholin-4-yl)ethyl]-4-{[2-(5-fluoro-6-methylpyridin-2-yl)pyrrolo[2,1-f][1,2,4]triazin-4-yl]amino}pyridine-3-carboxamide]
91	CC(C)(C)CC(=O)Nc1cc(Nc2nc(-c3cccc(C(F)(F)F)n3)nn3cccc23)ccn1 [Example 321, 3,3-dimethyl-N-[4-({2-[6-(trifluoromethyl)pyridin-2-yl]pyrrolo[2,1-f][1,2,4]triazin-4-yl}amino)pyridin-2-yl]butanamide]
1.5	Cc1csc(-c2nc(Nc3ccncc3)c3cccn3n2)n1 [Example 88, N-[2-(4-methyl-1,3-thiazol-2-yl)pyrrolo[2,1-f][1,2,4]triazin-4-yl]pyridin-4-amine]
0.59	Fc1ccc(-c2nc(Nc3ccncc3Cl)c3cccn3n2)nc1 [Example 4, 3-chloro-N-[2-(5-fluoropyridin-2-yl)pyrrolo[2,1-f][1,2,4]triazin-4-yl]pyridin-4-amine]
9	COc1cccc(-c2nc(Nc3ccncc3F)c3c(CN4CCC(F)(F)CC4)ccn3n2)n1 [Example 25, N-{5-[(4,4-difluoropiperidin-1-yl)methyl]-2-(6-methoxypyridin-2-yl)pyrrolo[2,1-f][1,2,4]triazin-4-yl}-3-fluoropyridin-4-amine]
0.79	Fc1ccc(-c2nc(Nc3ccncc3F)c3cccn3n2)nc1 [Example 65, 3-fluoro-N-[2-(5-fluoropyridin-2-yl)pyrrolo[2,1-f][1,2,4]triazin-4-yl]pyridin-4-amine]
1700	COc1cccc(-c2nc(Nc3ccncc3F)c3cc(CCN4CCN(C)CC4)cn3n2)n1 [Example 44, 3-fluoro-N-[2-(6-methoxypyridin-2-yl)-6-[2-(4-methylpiperazin-1-yl)ethyl]pyrrolo[2,1-f][1,2,4]triazin-4-yl]pyridin-4-amine]
45	O=C(NCCCN1CCOCC1)c1cnccc1Nc1nc(-c2cccc(C(F)(F)F)n2)nn2cccc12 [Example 169, N-[3-(morpholin-4-yl)propyl]-4-({2-[6-(trifluoromethyl)pyridin-2-yl]pyrrolo[2,1-f][1,2,4]triazin-4-yl}amino)pyridine-3-carboxamide]
5.3	Fc1cnccc1Nc1nc(-c2ccccn2)nn2ccc(CNc3ccc4[nH]nnc4c3)c12 [Example 306, N-({4-[(3-fluoropyridin-4-yl)amino]-2-(pyridin-2-yl)pyrrolo[2,1-f][1,2,4]triazin-5-yl}methyl)-1H-1,2,3-benzotriazol-5-amine]
